Patent US11173146B2, “Selective activators of the intermediate conductance CA2+activated K+ channel KCa3.1 and their methods of use” (The Regents of the University of California, priority 2014, dated 2021)
Where “and” joins values, the source holds several entries; their conditions need not be identical. Equal values may be shown once. Entries after “also recorded” stand apart in the source; their conditions may differ. Read-outs that look alike come from different tables or passages of the source.

What was measured:
human KCa2.3 = target: T1, human KCa2.3 (Homo sapiens, UniProt Q9UGI6); experiment: Manual whole-cell patch-clamp KCa2.3 activation (COS-7); type: cell-based
T1 construct: The cloning of hKCa2.3 (19 CAG repeats) and hKCa3.1 has been previously described (Wulff et al., 2000)
T1 sequence (Q9UGI6 with tags, fused parts or gaps DUP76-80): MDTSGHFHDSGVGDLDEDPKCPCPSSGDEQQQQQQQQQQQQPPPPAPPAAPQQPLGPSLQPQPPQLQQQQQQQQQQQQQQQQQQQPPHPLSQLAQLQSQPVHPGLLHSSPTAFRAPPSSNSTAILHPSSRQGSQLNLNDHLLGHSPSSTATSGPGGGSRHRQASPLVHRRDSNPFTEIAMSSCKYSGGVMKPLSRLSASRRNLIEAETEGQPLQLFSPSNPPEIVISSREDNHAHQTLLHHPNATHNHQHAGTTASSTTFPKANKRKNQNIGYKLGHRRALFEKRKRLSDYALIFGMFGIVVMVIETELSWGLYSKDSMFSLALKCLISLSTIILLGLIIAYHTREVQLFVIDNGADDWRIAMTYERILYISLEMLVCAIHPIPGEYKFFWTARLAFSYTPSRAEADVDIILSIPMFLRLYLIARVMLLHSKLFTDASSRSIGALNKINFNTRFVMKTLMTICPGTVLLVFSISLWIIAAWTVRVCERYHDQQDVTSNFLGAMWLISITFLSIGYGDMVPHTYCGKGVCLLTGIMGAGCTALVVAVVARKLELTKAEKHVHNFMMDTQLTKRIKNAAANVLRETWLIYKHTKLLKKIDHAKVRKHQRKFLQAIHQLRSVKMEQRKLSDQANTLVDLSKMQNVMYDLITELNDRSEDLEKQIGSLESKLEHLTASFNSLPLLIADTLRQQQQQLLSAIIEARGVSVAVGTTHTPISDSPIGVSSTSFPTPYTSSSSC
Text: (§1) Cells, Cell lines and Clones. […] The cloning of hKCa2.3 (19 CAG repeats) and hKCa3.1 has been previously described (Wulff et al., 2000). The hKCa2.3 clone was later stably expressed in COS-7 cells at Aurora Biosciences Corp., San Diego, Calif. Cell lines stably expressing other mammalian ion channels were gifts from several sources: hKCa1.1 in HEK-293 cells (Andrew Tinker, University College London); hKV2.1 in HEK293 cells (James Trimmer, UC Davis); KV11.1 (HERG) in HEK-293 cells (Craig January, University of Wisconsin, Madison); hNaV1.4 in HEK-293 cells (Frank Lehmann-Horn, University of Ulm, Germany), hNaV1.5 in HEK-293 cells (Christopher Lossin, University of California Davis), and hCaV1.2 in HEK-293 cells (Franz Hofmann, Munich, Germany).
(§2) Electrophysiology. Experiments were conducted either manually with an EPC-10 amplifier (HEKA, Lambrecht/Pfalz, Germany) or on a QPatch-16 automated electrophysiology platform (Sophion Biosciences, Denmark). […] Patch pipettes were pulled from soda lime glass (micro-hematocrit tubes, Kimble Chase, Rochester, N.Y.) and had resistances of 2-3 MΩ. […] Free Ca^2+ concentrations were calculated with MaxChelator assuming a temperature of 25° C., a pH of 7.2 and an ionic strength of 160 mM. […] Na^+ aspartate Ringer was used as an external solution (in mM): 160 Na^+ aspartate, 4.5 KCl, 2 CaCl2, 1 MgCl2, 5 HEPES, pH 7.4, 290-310 mOsm. […] Reduction of both peak and tail current by the drug was determined. NaV1.7 currents were recorded with 30 ms pulses from −90 mV to −10 mV every 10 sec with a CsF-based pipette solution and normal Ringer as an external solution. CaV1.2 currents were elicited by 100-ms depolarizing pulses from −80 to 20 mV every 10 sec with a CsCl-based pipette solution and an external solution containing 30 mM BaCl2. Blockade of both Na^+ and Ca^2+ currents was determined as reduction of the current minimum.
For all electrophysiology experiments solutions of benzothiazoles and benzooxazoles were always freshly prepared from 1 mM or 10 mM stock solutions in DMSO during the experiment. The final DMSO concentration never exceeded 1%. For automated assays glass vial inserts (Sophion Biosciences, Denmark) were filled with 350-400 μL of compound solution and placed into the glass insert base plate for use in the QPatch assay right before starting the QPatch.
The compounds synthesized by these methods as well as five commercially available compounds were tested for their KCa2.3 and KCa3.1 activating activity using either manual or automated whole-cell patch-clamp. Our group previously described the establishment of a QPatch assay for KCa3.1 modulators. […] We here made use of this assay and determined EC50 values for KCa3.1 activation using HEK-293 cells stably expressing human KCa3.1. Activities on human KCa2.3 were determined by manual electrophysioiogy since we currently only have KCa2.3 available in COS-7 cells, which are difficult to handle on the QPatch.

mNaV1.2 = target: T2, mNaV1.2 (Mus musculus, UniProt B1AWN6); experiment: NaV1.2 current inhibition (N1E-115 cells); type: cell-based
T2 construct: NaV1.2 currents from N1E-115 cells; host or cells: N1E-115 mouse neuroblastoma
T2 sequence (B1AWN6 whole entry): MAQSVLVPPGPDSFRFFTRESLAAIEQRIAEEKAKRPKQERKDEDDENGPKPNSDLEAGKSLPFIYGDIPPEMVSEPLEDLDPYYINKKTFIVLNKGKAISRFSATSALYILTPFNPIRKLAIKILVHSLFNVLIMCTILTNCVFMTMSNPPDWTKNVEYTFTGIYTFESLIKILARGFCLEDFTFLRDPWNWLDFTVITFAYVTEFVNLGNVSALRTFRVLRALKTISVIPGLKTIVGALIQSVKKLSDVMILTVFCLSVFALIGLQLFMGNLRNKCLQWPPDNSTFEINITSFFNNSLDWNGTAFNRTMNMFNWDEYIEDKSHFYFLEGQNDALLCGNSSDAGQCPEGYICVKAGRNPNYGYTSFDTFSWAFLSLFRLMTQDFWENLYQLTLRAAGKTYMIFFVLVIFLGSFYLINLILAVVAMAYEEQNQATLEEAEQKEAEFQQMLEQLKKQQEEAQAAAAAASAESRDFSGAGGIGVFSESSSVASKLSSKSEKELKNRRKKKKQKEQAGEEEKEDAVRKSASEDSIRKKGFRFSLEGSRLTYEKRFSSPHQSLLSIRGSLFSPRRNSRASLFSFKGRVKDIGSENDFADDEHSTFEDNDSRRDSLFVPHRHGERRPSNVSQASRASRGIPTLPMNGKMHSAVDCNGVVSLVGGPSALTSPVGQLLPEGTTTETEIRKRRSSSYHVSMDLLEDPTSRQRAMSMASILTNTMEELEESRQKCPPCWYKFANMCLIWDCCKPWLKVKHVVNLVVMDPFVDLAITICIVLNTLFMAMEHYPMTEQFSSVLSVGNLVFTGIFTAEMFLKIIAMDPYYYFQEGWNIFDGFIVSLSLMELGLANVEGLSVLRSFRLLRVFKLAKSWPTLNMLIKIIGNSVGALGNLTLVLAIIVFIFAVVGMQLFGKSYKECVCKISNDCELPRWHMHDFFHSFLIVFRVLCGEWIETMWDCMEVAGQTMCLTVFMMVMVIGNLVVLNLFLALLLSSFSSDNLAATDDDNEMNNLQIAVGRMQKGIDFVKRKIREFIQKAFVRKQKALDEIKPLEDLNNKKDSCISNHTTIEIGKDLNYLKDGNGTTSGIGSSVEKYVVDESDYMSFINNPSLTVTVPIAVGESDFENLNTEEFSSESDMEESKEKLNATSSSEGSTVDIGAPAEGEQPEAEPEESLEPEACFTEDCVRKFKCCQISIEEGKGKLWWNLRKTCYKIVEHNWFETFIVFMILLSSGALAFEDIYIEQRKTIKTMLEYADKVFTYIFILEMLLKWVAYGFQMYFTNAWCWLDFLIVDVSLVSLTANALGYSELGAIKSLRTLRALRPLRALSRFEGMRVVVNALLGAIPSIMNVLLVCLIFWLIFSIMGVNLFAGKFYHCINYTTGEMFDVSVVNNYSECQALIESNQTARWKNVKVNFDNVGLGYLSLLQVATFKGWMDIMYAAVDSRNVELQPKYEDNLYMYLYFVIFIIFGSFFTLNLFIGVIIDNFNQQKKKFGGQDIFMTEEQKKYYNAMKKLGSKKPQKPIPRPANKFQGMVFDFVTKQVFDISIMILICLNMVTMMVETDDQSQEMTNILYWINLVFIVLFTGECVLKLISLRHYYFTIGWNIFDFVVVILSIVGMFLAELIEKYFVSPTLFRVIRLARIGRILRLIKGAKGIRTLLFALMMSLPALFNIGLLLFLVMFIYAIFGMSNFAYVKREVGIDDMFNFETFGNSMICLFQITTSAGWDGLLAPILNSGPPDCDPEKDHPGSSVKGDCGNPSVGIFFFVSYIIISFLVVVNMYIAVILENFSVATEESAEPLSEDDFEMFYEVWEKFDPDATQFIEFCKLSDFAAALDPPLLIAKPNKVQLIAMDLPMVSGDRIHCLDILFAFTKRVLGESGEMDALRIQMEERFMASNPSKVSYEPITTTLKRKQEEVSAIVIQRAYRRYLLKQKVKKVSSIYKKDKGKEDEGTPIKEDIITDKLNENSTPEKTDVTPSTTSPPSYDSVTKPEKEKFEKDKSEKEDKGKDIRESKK

[1] = test system: L-NAME-treated moderately hypertensive mice; experiment: Telemetry in L-NAME-treated hypertensive mice; type: in vivo, mouse
Protocol: Telemetry. […] Maximal injection volume was ≤600 μl. […] Data were analyzed using the DSI software.
In contrast, SKA-121 at 100 mg/kg produced a significant drop in MAP by ˜25 mm Hg over 6 h.

KCa3.1 = KCa3.1 (Homo sapiens, UniProt O15554+P0DP23); experiment: Whole-cell patch-clamp KCa3.1 activation (QPatch, HEK-293); type: cell-based; design: host or cells: HEK-293
Text: as §1, §2
For automated electrophysiology experiments cells were grown to ˜70% confluency, rinsed in sterile PBS containing 0.02% EDTA, and lifted with 2 mL of TrypLE™ Express (Gibco, Grand Island, N.Y.) for ˜2 min. When cells were rounded but not detached, they were dislodged by gentle tapping, suspended in DMEM, centrifuged and resuspended in 1 ml of external solution, placed into the Qfuge tube and resuspended in 150-200 μL extracellular solution after one additional spin on the QPatch. Whole-cell patch-clamp experiments were then carried out using disposable 16-channel planar patch chip plates (QPlates; patch hole diameter approximately 1 μm, resistance 2.00±0.02 MΩ). […] In order to avoid rejection of cells with large KCa3.1 currents the minimum seal resistance for whole-cell requirement was lowered to 0.001 GΩ. […] Following establishment of the whole-cell configuration, cells were held at −80 mV and KCa3.1, KCa2.1 or KCa2.2 currents elicited by a voltage protocol that held at −80 mV for 20 ms, stepped to −120 mV for 20 ms, ramped from −120 to 40 mV in 200 ms and then stepped back to −120 mV for 20 ms. This pulse protocol was applied every 10 s. […] NaV1.2 currents from N1E-115 cells, NaV1.4 and NaV1.5 currents from stably transfected HEK cells were recorded with 20 ms pulses from −90 mV to 0 mV every 10 sec with a KF-based internal solution and normal Ringer as an external solution. Current slopes (in ampere per sec) were measured using the SophionQPatch software and exported to Microsoft Excel and Origin 7.0 (OriginLab Corp. MA) for analysis. […] Data fitting to the Hill equation to obtain EC50 and IC50 values was performed with Origin 7.0. Data are expressed as mean±SD.

KCa3.1−/− mice = experiment: Telemetry in KCa3.1−/− mice; conditions: 100 mg/kg i.p.
hKCa2.1 = hKCa2.1 (Homo sapiens, UniProt P0DP23+Q92952); experiment: Whole-cell patch-clamp KCa2.1 activation (HEK-293)
rKCa2.2 = rKCa2.2 (UniProt P0DP23+P70604); experiment: Whole-cell patch-clamp KCa2.2 activation (HEK-293)
[2] = test system: porcine coronary arteries; experiment: Isometric myography on porcine coronary arteries, bradykinin-induced EDH-type relaxation; conditions: compound 1 μM; for BK (1 μM)-induced relaxation potentiated to: U46619-precontracted, L-NNA and indomethacin

`Cc1cc2nc(N)oc2c2ccccc12` [SKA-121, 5-Methylnaphtho[2,1-d]oxazol-2-amine] was tested, and the EC50 (human KCa2.3; 250 nM free Ca2+; read-out: EC50 for KCa2.3 activation) was 4.4 ± 2.3 µM, the “Hill coefficient nH, KCa2.3 concentration-response curve” value (human KCa2.3; FIG. 4 legend) was 1.6 and the EC50 (human KCa2.3; Table 1; 250 nM free Ca2+; read-out: KCa2.3 EC50) was 4.4 ± 2.6 µM. The inhibition at 50 µM (mNaV1.2; at 50 μM) was 15.2 ± 12.7%, the “HR” value ([1]; 100 mg/kg i.p.) was “remained virtually stable; also recorded: minor decrease” and the “drop in MAP” value ([1]; 100 mg/kg i.p.) was about 25 mm Hg. The “duration of MAP drop” value ([1]; 100 mg/kg i.p.) was 6 h, the “blood pressure” value ([1]; 100 mg/kg i.p., FIG. 6B) was “reduced blood pressure” and the “maximal KCa3.1 current increase” value (KCa3.1; 250 nM free Ca2+) was “roughly 30 fold”. For the same compound, the EC50 (KCa3.1; 250 nM free Ca2+, read-out: EC50 for KCa3.1 activation) was 0.109 µM and 0.111 µM and ~0.11 µM, the EC50 (KCa3.1; Appendix A, read-out: KCa3.1 EC50 (converted)) was 0.2 µM and the “Hill coefficient nH, KCa3.1 concentration-response curve” value (KCa3.1; FIG. 4 legend) was 3.0. For the same compound, the “selectivity for KCa3.1 over the three KCa2 channels” value (KCa3.1; KCa2.1, KCa2.2 and KCa2.3) was 40-80 fold, the EC50 (KCa3.1; Table 1, 250 nM free Ca2+, read-out: KCa3.1 EC50 (converted)) was 0.109 µM and the “selectivity for KCa3.1 over KCa2.3” value (KCa3.1; ratio of EC50 values) was about 40 fold. The “HR” value (KCa3.1−/− mice) was “did not; also recorded: no significant effects”, the “MAP” value (KCa3.1−/− mice) was “did not; also recorded: no significant effects” and the EC50 (hKCa2.1) was 8.7 ± 1.6 µM. The “Hill coefficient nH, KCa2.1 concentration-response curve” value (hKCa2.1; FIG. 4 legend) was 4.1, the EC50 (rKCa2.2) was 6.8 ± 2.2 µM and the “Hill coefficient nH, KCa2.2 concentration-response curve” value (rKCa2.2; FIG. 4 legend) was 1.7. The “bradykinin-induced EDH-type relaxation” value [2] was “increased” and the “BK (1 μM)-induced relaxation potentiated to” value [2] was “≈ 300%”.

In the case of `Cc1cc2sc(N)nc2c2ccccc12` [SKA-111, 5-methylnaphtho[1,2-d]thiazol-2-amine], the EC50 (human KCa2.3; read-out: EC50 for KCa2.3 activation; 250 nM free Ca2+) is reported as 13.7 ± 6.9 µM, the inhibition at 25 µM (mNaV1.2; at 25 μM) is reported as 19.5 ± 6.9% and the “HR” value ([1]; 60 mg/kg i.p.) is reported as “remained virtually stable; also recorded: only a minor drop”. For the same compound, the “MAP” value ([1]; 60 mg/kg i.p.) was “reduced blood pressure; also recorded: only a minor drop”, the “bradykinin-induced EDH-type relaxation” value [2] was “increased” and the “BK (1 μM)-induced relaxation potentiated to” value [2] was “≈ 200%”.
